Data published in patent US20070179161A1, “Pyrazolopyrimidine compounds and their use in medicine” (VERNALIS (CAMBRIDGE) LIMITED., priority 2003, published 2007).

Experiments:
Format in all cases: biochemical
[1] = target: CDK-2 enzyme, complexed with cyclin A (Homo sapiens, UniProt P24941); test: CDK2 enzyme inhibition assay (33P phosphorylation of peptide […], filter plate); conditions: CDK-2/cyclin A, 0.1 mM ATP, 40 min at 30° C.
Summary of the method: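 Cyclin A–complexed CDK2 (0.4 U/ml) incubated with inhibitor, 0.03 mM peptide, 0.1 mM ATP plus 33P-γ-ATP in HEPES pH 7.5, 7.5 mM Mg acetate, 0.1 mg/ml BSA, 40 min at 30 °C. Stopped with phosphoric acid; phosphorylated peptide captured on filter plates and counted by scintillation.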

[2] = target: T1, GST-Chk1 enzyme (Homo sapiens, UniProt O14757); test: Chk1 kinase inhibition assay (33P phosphorylation of Chktide, filter plate); conditions: 0.01 mM ATP, 11 nM GST-Chk1, 40 minutes at 30° C.; read-out: Chk1 IC50
T1 sequence (O14757 1-476): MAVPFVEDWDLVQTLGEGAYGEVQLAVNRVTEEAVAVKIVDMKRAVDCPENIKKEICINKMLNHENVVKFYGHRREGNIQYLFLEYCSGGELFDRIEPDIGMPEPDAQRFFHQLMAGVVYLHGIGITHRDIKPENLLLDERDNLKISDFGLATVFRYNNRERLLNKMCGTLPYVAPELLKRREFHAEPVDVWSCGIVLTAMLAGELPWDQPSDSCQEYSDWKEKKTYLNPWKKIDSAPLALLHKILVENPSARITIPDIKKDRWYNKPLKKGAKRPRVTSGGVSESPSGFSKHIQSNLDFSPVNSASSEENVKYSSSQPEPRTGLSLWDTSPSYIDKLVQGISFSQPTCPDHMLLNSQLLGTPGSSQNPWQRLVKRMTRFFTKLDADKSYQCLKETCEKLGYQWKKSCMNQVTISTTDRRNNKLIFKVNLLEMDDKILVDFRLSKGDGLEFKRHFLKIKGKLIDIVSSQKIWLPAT
Summary of the method: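 Inhibitor and enzyme reacted 40 min at 30 °C, then stopped with 50 mM phosphoric acid. Phosphorylated peptide captured on filter plates and quantified by scintillation counting.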

[3] = target: T2, PDK1 enzyme (Homo sapiens, UniProt O15530); test: PDK1 kinase inhibition assay (33P phosphorylation of synthetic peptide, filter plate); conditions: 0.01 mM ATP, 60 min at 30° C.; read-out: PDK1 IC50
T2 sequence (O15530 1-556): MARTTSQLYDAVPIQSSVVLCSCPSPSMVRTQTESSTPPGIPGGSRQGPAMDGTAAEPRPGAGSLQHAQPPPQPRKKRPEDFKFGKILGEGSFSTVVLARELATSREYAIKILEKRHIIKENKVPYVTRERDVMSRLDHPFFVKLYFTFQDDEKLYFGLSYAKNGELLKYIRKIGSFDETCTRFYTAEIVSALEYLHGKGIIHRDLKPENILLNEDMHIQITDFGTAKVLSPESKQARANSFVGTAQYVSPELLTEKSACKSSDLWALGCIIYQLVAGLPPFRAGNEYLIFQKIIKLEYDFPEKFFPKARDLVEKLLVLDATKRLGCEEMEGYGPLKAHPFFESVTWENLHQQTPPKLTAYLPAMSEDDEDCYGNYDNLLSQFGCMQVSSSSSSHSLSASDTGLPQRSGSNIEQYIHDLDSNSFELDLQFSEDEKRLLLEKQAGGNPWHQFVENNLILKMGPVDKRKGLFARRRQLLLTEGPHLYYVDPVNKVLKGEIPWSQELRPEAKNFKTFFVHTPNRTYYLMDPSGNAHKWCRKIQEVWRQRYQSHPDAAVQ
Summary of the method: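 PDK1 and inhibitor incubated 60 min at 30° C with 0.01 mM ATP plus 33P-γ-ATP, 0.075 mM peptide, 7.5 mM Mg acetate, 0.1 mg/ml BSA in 0.05 M Tris.HCl pH 7.5. Stopped with phosphoric acid; phosphorylated peptide captured on filter plate and counted by scintillation.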

SMILES | IC50 [1] [µM] | IC50 [2] [µM] | IC50 [3] [µM]
CC(C)Oc1cc(Nc2ccc(S(=O)(=O)N(C)C)cc2)n2ncc(C(C)C)c2n1 [Example 64] | 0.395 | > 200 | > 200
CCc1cnn2c(Nc3ccc(S(=O)(=O)N(C)C)cc3)cc(N[C@H]3CC[C@H](N)CC3)nc12 [Example 57] | 0.069 | 2.61 | 2.44
CC(C)c1cnn2c(Nc3ccc(S(=O)(=O)N(C)C)cc3)cc(C(=O)NCCN3CCOCC3)nc12 [Example 121] | 9.3 | > 200 | > 200
CC(C)c1cnn2c(Nc3ccc(S(N)(=O)=O)cc3)cc(Cl)nc12 [Example 32] | 0.062 | > 200 | > 200
CC(C)c1cnn2c(Nc3ccc(S(=O)(=O)N(C)C)cc3)cc(N3CCC(C(N)=O)CC3)nc12 [Example 73] | 1.48 | > 200 | > 200
CC(C)c1cnn2c(Nc3ccc(S(=O)(=O)N(C)C)cc3)cc(N[C@H]3CC[C@H](NC(=O)CN(C)C)CC3)nc12 [Example 86] | 0.03 | > 200 | > 200
CC(C)c1cnn2c(Nc3ccc(S(=O)(=O)N(C)C)cc3)cc(O[C@H]3CC[C@H](N)CC3)nc12 [Example 114] | 0.017 | 3.45 | 125
CC(C)c1cnn2c(Nc3ccc(S(=O)(=O)N(C)C)cc3)cc(OCC3CCCN3C)nc12 (stereo not drawn) [Example 65] | 1.09 | > 200 | > 200
CCNC(=O)c1cc(Nc2ccc(S(=O)(=O)N(C)C)cc2)n2ncc(C(C)C)c2n1 [Example 115] | 7.89 | > 200 | > 200
Oc1ccc(-c2cc(Nc3ccccc3)n3nccc3n2)cc1 [Example 4] | 3.76 | > 200 | > 200
CC(C)c1cnn2c(Nc3ccc(S(=O)(=O)N(C)C)cc3)cc(C(=O)NCCN(C)C)nc12 [Example 122] | 3.17 | > 200 | > 200
CN(C)CCNS(=O)(=O)c1ccc(Nc2cc(Cl)nc3c(Br)cnn23)cc1 [Example 135] | 0.081 | 43 | > 50
COc1ccc(CNc2cc(-c3ccsc3)nc3ccnn23)cc1 [Example 8] | 7.55 | > 200 | > 200
CC(C)c1cnn2c(Nc3ccc(S(=O)(=O)N(C)C)cc3)cc(N3CCCC(CN(C)C)C3)nc12 (stereo not drawn) [Example 89] | 8.27 | > 200 | > 200
Cc1cccc(-c2cc(Nc3ccc(S(=O)(=O)N4CCOCC4)cc3)n3nccc3n2)c1 [Example 13] | 1.76 | > 200 | > 200
CCCN(CCC)[C@H]1CC[C@H](Nc2cc(Nc3ccc(S(=O)(=O)N(C)C)cc3)n3ncc(C(C)C)c3n2)CC1 [Example 125] | 0.155 | 20.5 | 19.9
CS(=O)(=O)c1ccc(Nc2cc(Cl)nc3c(Cc4ccccc4)cnn23)cc1 [Example 23] | > 200 | > 200 | > 200
N[C@H]1CC[C@@H](Nc2cc(Nc3ccc(S(=O)(=O)N4CCCC4)cc3)n3ncc(Br)c3n2)CC1 [Example 178] | 0.15 | 0.07 | 2.58
CC(C)c1cnn2c(Nc3ccc(S(=O)(=O)N(C)C)cc3)cc(OC3CCCN(C)C3)nc12 (stereo not drawn) [Example 75] | 0.266 | 6.28 | > 200
Cc1noc(C)c1-c1cc(Nc2ccc(F)cc2)n2nccc2n1 [Example 2, 5-(3,5-Dimethylisoxazole)-7-(4-fluorophenylamino)pyrazolo[1,5-a]pyrimidine] | 13.4 | > 200 | > 200
CC(C)c1cnn2c(Nc3ccc(S(=O)(=O)N(C)CCO)cc3)cc(OCCN(C)C)nc12 [Example 39] | 0.403 | 80.8 | > 200
